Values of other authors in US20100048608A1, “Histone Deacetylase Inhibitors for the Treatment of Ocular Neovascular or Edematous Disorders and Diseases” (ALCON, INC., priority 2002, published 2010).

What was measured:
[1] = system: corneal neovascularization; conditions: in combination with a beta cyclodextrin; Li et al. 1991
cancer cell [2] = conditions: Butler et al. 2002
[3] = phase I clinical trials; Kelly et al. 2001
tumors = conditions: Butler et al. 2000
cancer cell [4] = conditions: Munster et al. 2001

C[C@@H]1C[C@H]2[C@@H]3C[C@H](F)C4=CC(=O)CC[C@]4(C)C3=CC[C@]2(C)[C@@]1(O)C(=O)CO [U-72,745G]
inhibition of corneal neovascularization [1]: inhibit corneal neovascularization

O=C(CCCCCCC(=O)Nc1ccccc1)NO [SAHA, suberoylanilide hydroxamic acid]
cancer cell growth in vitro (cancer cell [2]): arrest cancer cell growth in vitro
dose-limiting toxicity [3]: almost no dose-limiting toxicity
suppression of white blood cell production [3]: no suppression of white blood cell production
effect on tumors in animal models (tumors): shrink tumors in animal models
induction of cancer cell differentiation (cancer cell [4]): potent inducer of cancer cell differentiation

C[C@]12CC[C@@H](O)C[C@H]1CC[C@@H]1[C@@H]2CC[C@@]2(C)[C@H]1CC[C@]2(O)C(=O)CO [tetrahydrocortisol-S]
inhibition of corneal neovascularization [1]: inhibit corneal neovascularization

C[C@]12CCC(=O)C=C1CC[C@@H]1[C@@H]2[C@@H](O)C[C@@]2(C)[C@H]1CC[C@]2(O)C(=O)CO [hydrocortisone]
inhibition of corneal neovascularization [1]: inhibit corneal neovascularization
